Experimental data reported in US9206173B2, “Heterocyclic compounds for the treatment of stress-related conditions” (OTSUKA PHARMACEUTICAL CO., LTD., priority 2009, dated 2015).
Structures can show the parent of a compound that is named as a salt. Where two headings read alike, the source gives them in different places.

Key:
[1] = biological target: T1, human GPR10 (Homo sapiens (Human), UniProt P49683); test: Antagonistic activity on PrRP-induced intracellular calcium mobilization in human GPR10-expressing HEK293 cells; format: cell-based; settings: PrRP 1 nM-induced intracellular calcium mobilization, Fluo-8
T1 sequence (P49683 whole entry): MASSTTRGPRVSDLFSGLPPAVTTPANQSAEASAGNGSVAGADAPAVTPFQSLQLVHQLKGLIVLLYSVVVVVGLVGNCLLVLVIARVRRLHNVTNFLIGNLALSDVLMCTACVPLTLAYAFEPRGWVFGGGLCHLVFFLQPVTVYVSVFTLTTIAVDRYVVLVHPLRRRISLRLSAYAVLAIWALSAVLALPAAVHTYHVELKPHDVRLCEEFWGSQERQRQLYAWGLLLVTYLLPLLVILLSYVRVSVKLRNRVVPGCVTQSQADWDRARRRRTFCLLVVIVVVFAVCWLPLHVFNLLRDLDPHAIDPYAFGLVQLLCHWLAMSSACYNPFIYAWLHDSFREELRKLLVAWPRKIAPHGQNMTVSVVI
Protocol: Pharmacological Test 2 Antagonistic Activity on GPR10 Using Human GPR10-Expressing HEK293 Cells.
Antagonistic activity of test compounds on PrRP-induced intracellular calcium mobilization was evaluated using GPR10-expressing HEK293 cells.
HEK293 cells expressing human GPR10 were maintained in Dulbecco's Modified Eagles' medium supplemented with 10% fetal bovine serum, 1% penicillin-streptomycin and 20 mM HEPES at 37° C. in a 5% CO2 incubator. GPR10-expressing HEK293 cells were placed in poly-D-lysine coated 96-well culture plates and cultured for 18-24 hr before the test at a density of 3×10^4 cells/well. […] The cells were incubated with test compounds for 15 min at room temperature, and then PrRP (the final concentration, 1 nM) was added into the medium. The changes in intracellular calcium-dependent fluorescence were monitored using a fluorescence imaging plate reader (FDSS3000, Hamamatsu Photonics K.K.). Fluo-8 fluorescence was measured with excitation at 490 nm and emission at 520 nm. The calcium-dependent fluorescence intensity was calculated by subtracting basal intensity (average intensity for 30 sec before agonist stimulation) from peak intensity for 60 sec after PrRP-stimulation, and then IC50 values were determined by nonlinear curve-fitting program, GraphPad Prism 5.

[2] = biological target: T1, human GPR10; test: Inhibitory activity on binding of [3H]-PrRP to GPR10 (HEK 293 cell membrane fraction)
Protocol: Inhibitory Activity on Binding of [^3H]-PrRP to GPR10
Human GPR10 receptor expressing human embryonic kidney cells, HEK 293 cells, were cultured in Dulbecco's Modified Eagle's medium supplemented with 10% fetal bovine serum and 1% penicilline-streptmycin at 37° C., in 5% carbon dioxide gas conditions. The medium was removed and the cells were recovered in a phosphate buffer to prepare a cell suspension. The cell suspension was homogenated on ice by an ultrasonic cell homogenizer (Microson™ type XL200) and centrifuged at 40,000 g for 10 minutes at 4° C. After the supernatant was discarded, Buffer A (20 mM HEPES, 10 mM EDTA, 1 μl/ml protease inhibiting cocktail, pH 7.4) was added to the pellet. The pellet was suspended by the ultrasonic cell homogenizer, then the suspension was centrifuged at 40,000 g, for 10 minutes at 4° C. After this operation was repeated once again, the supernatant was discarded, Buffer B (20 mM HEPES, 0.1 mM EDTA, pH 7.4) was added to the pellet, and the pellet was suspended by the ultrasonic homogenizer. This was stored at a freezer of −80° C. as a cell membrane fraction until use in a binding test.
To each well of a 96-well plate, 150 μl of assay buffer (20 mM HEPES, 10 mM EDTA, 1 μl/ml protease inhibiting agent cocktail, pH 7.4), 20 μl of cell membrane fraction, 10 μl of test compound and [^3H]-PrRP (final concentration 1 nM) were added and incubated at room temperature for 90 minutes. After completion of the reaction, using a cell harvester, the cell-membrane fraction sample product was filtered under aspiration by a glass fiber filter plate (Unifilter; GF/B) previously treated with 0.5% polyethylene imine. The filter was washed with a 50 mM Tris hydrochloric acid buffer (pH 7.4) three times. After the filter was dried in a dryer (50° C.) for about 3 hours, 40 μl of liquid scintillation cocktail (MicroScint-O) was added to each well and radio activity was measured by a scintillation counter (Packard Topcount). The radio activity in the presence of an excessive amount of non-labeled PrRP (final concentration: 100 nM) was regarded as non-specific binding.
The binding inhibition rate was calculated based on calculating formula: 100−(radio activity when a compound is added−radio activity of non-specific binding)÷(radio activity when a solvent is added−radio activity of non-specific binding)×100.
An IC50 value was calculated based on the concentration dependent reaction using a non-linear analysis program and a Ki value was calculated using Cheng-Prussoff formula.

[3] = [3H]-PrRP 1 nM, human GPR10-expressing HEK 293 cell membrane fraction, Ki from IC50 by Cheng-Prussoff formula

| SMILES | IC50 [1] [µM] | Ki [2, 3] [µM] | Ki [2] [µM] |
| --- | --- | --- | --- |
| COn1c(N[C@@H](C)c2ccc(Cl)cc2)nc2c(c1=O)CN(C(=O)COc1ccc(Cl)cc1)CC2 [Example 2430, 6-[2-(4-chlorophenoxy)acetyl]-2-[(S)-1-(4-chlorophenyl)ethylamino]-3-methoxy-5,6,7,8-tetrahydro-3H-pyrido[4,3-d]pyrimidin-4-one] | 1.18 | 0.015 | – |
| COn1c(N[C@@H](C)c2ccc(C(F)(F)F)cc2)nc2c(c1=O)CN(C(=O)/C=C/c1ccc(Cl)cc1)CC2 [Example 2392, 6-[(E)-3-(4-chlorophenyl)acryloyl]-3-methoxy-2-[(S)-1-(4-trifluoromethylphenyl)ethylamino]-5,6,7,8-tetrahydro-3H-pyrido[4,3-d]pyrimidin-4-one] | 5.79 | – | 0.012 |
| C[C@@H](Nc1nc2c(c(=O)n1N1CCCC1)CN(C(=O)c1ccc(C#N)cc1)CC2)c1ccc(C(F)(F)F)cc1 [Example 163] | 0.648 | 0.01 | – |
| CCOn1c(N[C@H](C)c2ccc(C(F)(F)F)cc2)nc2c(c1=O)CN(C(=O)c1ccc(C#N)cc1)CC2 [Example 92] | 0.156 | 0.011 | – |
| C#CCCn1c(N[C@@H](C)c2ccc(C(F)(F)F)cc2)nc2c(c1=O)CN(C(=O)c1ccc(C#N)cc1)CC2 [Example 2433, 4-{3-(3-butynyl)-4-oxo-2-[(S)-1-(4-trifluoromethylphenyl)ethylamino]-3,5,7,8-tetrahydro-4H-pyrido[4,3-d]pyrimidine-6-carbonyl}benzonitrile] | 0.062 | 0.005 | – |
| CC#CCn1c(N[C@@H](C)c2ccc(C(F)(F)F)cc2)nc2c(c1=O)CN(C(=O)c1ccc(Cl)cc1)CC2 [Example 2409, 3-(2-butynyl)-6-(4-chlorobenzoyl)-2-[(S)-1-(4-trifluoromethylphenyl)ethylamino]-5,6,7,8-tetrahydro-3H-pyrido[4,3-d]pyrimidin-4-one hydrochloride] | 2.44 | 0.016 | – |
| COn1c(N[C@@H](C)c2ccc(C(F)(F)F)cc2)nc2c(c1=O)CN(C(=O)c1ccc(C#N)cc1F)CC2 [Example 11, 6-(4-cyano-2-fluorobenzoyl)-3-methoxy-2-(S)-{1-[4-(trifluoromethyl)phenyl]ethylamino}-5,6,7,8-tetrahydropyrido[4,3-d]pyrimidin-4-(3H)-one hydrochloride] | 0.034 | 0.015 | – |
| COc1ccc(C(=O)N2CCc3nc(N[C@@H](C)c4ccc(C(F)(F)F)cc4)n(OC)c(=O)c3C2)c(OC)n1 [Example 2419, 6-(2,6-dimethoxypyridine-3-carbonyl)-3-methoxy-2-[(S)-1-(4-trifluoromethylphenyl)ethylamino]-5,6,7,8-tetrahydro-3H-pyrido[4,3-d]pyrimidin-4-one] | 0.228 | 0.007 | – |
| CC#CCn1c(N[C@@H](C)c2ccc(C(F)(F)F)cc2)nc2c(c1=O)CN(C(=O)c1ccc(C#N)cc1F)CC2 [Example 2406, 4-{3-(2-butynyl)-4-oxo-2-[(S)-1-(4-trifluoromethylphenyl)ethylamino]-3,5,7,8-tetrahydro-4H-pyrido[4,3-d]pyrimidine-6-carbonyl}-3-fluorobenzonitrile hydrochloride] | 0.078 | 0.002 | – |
| CC#CCn1c(N[C@@H](C)c2ccc(C(F)(F)F)cc2)nc2c(c1=O)CN(C(=O)c1ccc(-n3ccnc3)cc1)CC2 [Example 2402, 3-(2-butynyl)-6-(4-imidazol-1-ylbenzoyl)-2-[(S)-1-(4-trifluoromethylphenyl)ethylamino]-5,6,7,8-tetrahydro-3H-pyrido[4,3-d]pyrimidin-4-one dihydrochloride] | 0.099 | 0.006 | – |
| CCOn1c(N[C@H](C)c2ccc(C(F)(F)F)cc2)nc2c(c1=O)CN(C(=O)c1ccc(Cl)cc1)CC2 [Example 86] | 3.71 | 0.025 | – |
| CCOn1c(N[C@H](C)c2ccc(C(F)(F)F)cc2)nc2c(c1=O)CN(C(=O)c1ccc(C#N)cc1F)CC2 [Example 95] | 0.227 | 0.005 | – |
| COn1c(N[C@@H](C)c2ccc(Cl)cc2)nc2c(c1=O)CN(C(=O)c1ccc(Cl)cc1)CC2 [Example 9, 6-(4-chlorobenzoyl)-3-methoxy-2-(S)-[1-(4-chlorophenyl)ethylamino]-5,6,7,8-tetrahydropyrido[4,3-d]pyrimidin-4-(3H)-one] | 0.204 | 0.028 | – |
| CC#CCn1c(N[C@@H](C)c2ccc(C(F)(F)F)cc2)nc2c(c1=O)CN(C(=O)c1ccc3ccccc3n1)CC2 [Example 2449, 3-(2-butynyl)-6-(quinoline-2-carbonyl)-2-[(S)-1-(4-trifluoromethylphenyl)ethylamino]-5,6,7,8-tetrahydro-3H-pyrido[4,3-d]pyrimidin-4-one] | 3.35 | 0.024 | – |
| COn1c(N[C@@H](C)c2ccc(C(F)(F)F)cc2)nc2c(c1=O)CN(C(=O)c1ccc(Cl)cc1)CC2 [Example 10, 6-(4-chlorobenzoyl)-3-methoxy-2-(S)-{1-[4-(trifluoromethyl)phenyl]ethylamino}-5,6,7,8-tetrahydropyrido[4,3-d]pyrimidin-4-(3H)-one hydrochloride] | 0.14 | 0.017 | – |
| C#CCn1c(N[C@@H](C)c2ccc(Cl)cc2)nc2c(c1=O)CN(C(=O)c1ccc(Cl)cc1)CC2 [Example 3, 6-(4-chlorobenzoyl)-3-propargyl-2-(S)-{1-[4-chlorophenyl]ethylamino}-5,6,7,8-tetrahydropyrido[4,3-d]pyrimidin-4-(3H)-one] | 1.72 | 0.042 | – |
| COn1c(N[C@@H](C)c2ccc(C(F)(F)F)cc2)nc2c(c1=O)CN(C(=O)c1ccc(C)s1)CC2 [Example 2404, 3-methoxy-6-(5-methyl-thiophene-2-carbonyl)-2-[(S)-1-(4-trifluoromethylphenyl)ethylamino]-5,6,7,8-tetrahydro-3H-pyrido[4,3-d]pyrimidin-4-one] | 1.13 | 0.01 | – |
| COn1c(N[C@@H](C)c2ccc(C(F)(F)F)cc2)nc2c(c1=O)CN(C(=O)CSc1ccc(Cl)cc1)CC2 [Example 2390, 6-[2-(4-chlorophenylsulfanyl)acetyl]-3-methoxy-2-[(S)-1-(4-trifluoromethylphenyl)ethylamino]-5,6,7,8-tetrahydro-3H-pyrido[4,3-d]pyrimidin-4-one] | 1.14 | 0.008 | – |
| CC#CCn1c(N[C@@H](C)c2ccc(C(F)(F)F)cc2)nc2c(c1=O)CN(C(=O)c1ccc(-c3cnco3)cc1)CC2 [Example 2410, 3-(2-butynyl)-6-(4-oxazol-5-ylbenzoyl)-2-[(S)-1-(4-trifluoromethylphenyl)ethylamino]-5,6,7,8-tetrahydro-3H-pyrido[4,3-d]pyrimidin-4-one hydrochloride] | 0.665 | 0.01 | – |
| C#CCCn1c(N[C@@H](C)c2ccc(C(F)(F)F)cc2)nc2c(c1=O)CN(C(=O)c1ccc(-n3ccnc3)cc1)CC2 [Example 2434, 3-(3-butynyl)-6-(4-imidazol-1-ylbenzoyl)-2-[(S)-1-(4-trifluoromethylphenyl)ethylamino]-5,6,7,8-tetrahydro-3H-pyrido[4,3-d]pyrimidin-4-one] | – | 0.009 | – |
| COn1c(NC(CCC(F)(F)F)c2ccc(Cl)cc2)nc2c(c1=O)CN(C(=O)c1ccc(Cl)cc1)CC2 (stereo not shown) [Example 2450, 6-(4-chlorobenzoyl)-2-[1-(4-chlorophenyl)-4,4,4-trifluorobutylamino]-3-methoxy-5,6,7,8-tetrahydro-3H-pyrido[4,3-d]pyrimidin-4-one] | – | 0.121 | – |
